Laboratory results from patent US11613526B2, “Thiophene derivatives” (priority 2018, dated 2023).

Tests used:
[1] = molecular target: T1, interaction of the PAS B domains of HIF-2α and HIF-1β (Homo sapiens, UniProt Q99814); experiment: Alphascreen protein protein interaction assay; type: biochemical
T1 construct: His6Gb1-TEV-GEFKGL-HIF2α (240-350aa)-G
Method: Alphascreen Protein Protein Interaction Assay:
For the assessment of functional disruption of the interaction of the PAS B domains of HIF-2α and HIF-1β an AlphaScreen assay was set-up. The assay was performed in 384 well light gray Perkin Elmer microtiter plates in a total volume of 7 μl. […] The detection of the protein protein interaction was performed by adding AlphaLISA® Anti-FLAG Acceptor beads (fc 20 μg/ml) and AlphaScreen® Nickel Chelate Donor beads (fc 9 μg/ml) (both Perkin Elmer) and the reaction was incubated for 240 min at 23° C. in the dark. If donor and acceptor beads get in close proximity to each other caused by interaction of HIF2alpha PAS B with HIF-1ß PAS B domain it results in a luminescence signal at 615 nm after excitation at 680 nm. The PPI disruption activity of a compound was calculated directly from the loss in Alphascreen signal. The AlphaScreen signal was measured with an Envision multimode reader (Perkin Elmer LAS Germany GmbH). The control value used was the inhibitor-free reaction. The pharmacological zero value used was determined in the absence of HIF-11. The inhibitory values (IC50) were calculated using Assay analyser from GeneData.

[2] = molecular target: T2, HIF2a (240-350)-G (Homo sapiens, UniProt Q99814); experiment: ITC; type: binding
T2 construct: The protein, HIF2a (240-350)-G, was prepared by recombinant overexpression; made in house
Method: ITC measurements were performed with a VP-ITC microcalorimeter from MicroCal/Malvern (UK). For all titration experiments the protein and the respective compounds were formulated in 30 mM HEPES buffer pH 7.5, 150 mM NaCl and 5 mM ß-mercaptoethanol. The protein, HIF2a (240-350)-G, was prepared by recombinant overexpression and multistep chromatography purification. Compounds were used from concentrated DMSO stock solutions. The final protein concentration in the injection syringe was 100 μM. Ligand stock solutions of 10 mM in DMSO were diluted to 10 μM concentrations with buffer and loaded into the sample cell. All buffers were adjusted to a final concentration of 1% (v/v) DMSO. Both, the titrate and titrant solutions were degassed prior to loading the calorimeter cell and injection syringe. […] The integrated heat data were fit with a one-site binding model to determine the apparent values for affinity, enthalpy and stoichiometry of binding.

[3] = system: HIF2α-HIF1β activity in 786-O HRE-luc2P cells; experiment: Cellular mechanistic assay: 786-O HRE-luc2P reporter assay; type: cell-based; details: Homo sapiens, 786-0, 48 h, read-out: HRE-luc2P reporter assay IC50
Method: This reporter assay was designed to monitor binding of the HIF2α-HIF1β complex to specific DNA fragment called hypoxia response element (HRE) in physiologically relevant cell line. […] HRE is present in promoters of various genes regulated by hypoxia inducible factors. […] As a result, this reporter assay allows monitoring of HIF2α-HIF1β activity by determining the activity of produced luciferase. Cell culture is performed in RPMI media supplemented with 10% FBS, Sodium Pyruvate, Penicillin/Streptomycin, Glutamine, 200 μg/ml Hygromycin Gold.
The assay was performed in 384 well white, opaque microtiterplate with transparent bottom (Greiner Bio-one, Frickenhausen). […] 50 μl of cell suspension (2000 cells) per well were dispensed in microtiter plates and incubated over night at 37° C. in a 5% CO2 incubator. Compounds were added with Labcyte Echo dispenser (fc 0.2% DMSO, 9 concentrations dilution raw starting at 10 μM). Plates were incubated for 48 h at 37° C. in a 5% CO2 incubator. After this 45 μl of pre-warmed ONE-Glo™ EX Reagent were added per well. Plates were placed on an orbital shaker at 1200 rpm for 3 minutes. Plates were sealed and luminescence was measured a Tecan Spark 20M microplate reader (end-point measurement with 0.1 second reading time). Values were normalized to DMSO ctrl and wells without cells (only medium ctrl). Decrease in luminescence directly correlates with inhibition of HIF2α activity. IC50 values and % effect values were calculated by GraphPad Prism.

T2 sequence (Q99814 240-350): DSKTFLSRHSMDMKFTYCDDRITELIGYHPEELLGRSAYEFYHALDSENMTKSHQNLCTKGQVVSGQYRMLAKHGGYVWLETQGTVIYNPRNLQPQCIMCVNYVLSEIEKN
T1 sequence (Q99814 240-350): as above

IC50 [1] [µM] | Kd [2] [µM] | IC50 [3] [µM] | Structure (SMILES)
> 1 | > 1 |  | CS(=O)(=O)c1sc(-c2ccccc2)c2c1[C@H](O)C(F)(F)C2 [Example 25a, (4S)-5,5-difluoro-3-methanesulfonyl-1-phenyl-4H,6H-cyclopenta[c]thiophen-4-ol]
> 1 |  | > 1 | Cn1nc(C(F)(F)F)cc1-c1sc(S(C)(=O)=O)c2c1CCC(F)(F)[C@H]2O [Example 46a, (4S)-5,5-difluoro-3-methanesulfonyl-1-[1-methyl-3-(trifluoromethyl)-1H-pyrazol-5-yl]-4,5,6,7-tetrahydro-2-benzothiophen-4-ol]
0.05 to 1 |  | > 1 | CS(=O)(=O)c1sc(-c2cncc(C(F)(F)F)c2)c2c1[C@H](O)C(F)(F)CC2 [Example 62a, (4S)-5,5-difluoro-3-methanesulfonyl-1-[5-(trifluoromethyl)pyridin-3-yl]-4,5,6,7-tetrahydro-2-benzothiophen-4-ol]
> 1 |  |  | Cc1nn(C)cc1-c1sc(S(C)(=O)=O)c2c1CCC(F)(F)[C@H]2O [Example 39a, (4S)-1-(1,3-dimethyl-1H-pyrazol-4-yI)-5,5-difluoro-3-methanesulfonyl-4,5,6,7-tetrahydro-2-benzothiophen-4-ol]
> 1 |  |  | Cc1cc(-c2sc(S(C)(=O)=O)c3c2CC(F)(F)[C@H]3O)n(C)n1 [Example 49a, (4S)-1-(1,3-dimethyl-1H-pyrazol-5-yl)-5,5-difluoro-3-methanesulfonyl-4H,5H,6H-cyclopenta[c]thiophen-4-ol]
0.05 to 1 |  | > 1 | CS(=O)(=O)c1sc(-c2cncc(Cl)c2)c2c1[C@H](O)C(F)(F)CC2 [Example 56a, (4S)-1-(5-chloropyridin-3-yl)-5,5-difluoro-3-methanesulfonyl-4,5,6,7-tetrahydro-2-benzothiophen-4-ol]
> 1 |  |  | Cn1nc(C#N)cc1-c1sc(S(C)(=O)=O)c2c1CCC(F)(F)[C@H]2O [Example 51a, 5-[(4S)-5,5-difluoro-4-hydroxy-3-methanesulfonyl-4,5,6,7-tetrahydro-2-benzothiophen-1-yl]-1-methyl-1H-pyrazole-3-carbonitrile]
> 1 |  | > 1 | Cn1nccc1-c1sc(S(C)(=O)=O)c2c1CC(F)(F)[C@H]2O [Example 47a, (4S)-5,5-difluoro-3-methanesulfonyl-1-(1-methyl-1H-pyrazol-5-yl)-4H,5H,6H-cyclopenta[c]thiophen-4-ol]
> 1 |  | > 1 | Cn1nc(-c2sc(S(C)(=O)=O)c3c2CCC(F)(F)[C@H]3O)cc1C#N [Example 54a, 3-[(4S)-5,5-difluoro-4-hydroxy-3-methanesulfonyl-4,5,6,7-tetrahydro-2-benzothiophen-1-yl]-1-methyl-1H-pyrazole-5-carbonitrile]
> 1 | > 1 |  | CS(=O)(=O)c1sc(-c2cccc(F)c2)c2c1[C@H](O)C(F)(F)C2 [Example 28a, (4S)-5,5-difluoro-1-(3-fluorophenyl)-3-methanesulfonyl-4H,6H-cyclopenta[c]thiophen-4-ol]
> 1 | > 1 |  | CS(=O)(=O)c1sc(-c2ccccc2F)c2c1[C@H](O)C(F)(F)C2 [Example 27a, (4S)-5,5-difluoro-1-(2-fluorophenyl)-3-methanesulfonyl-4H,6H-cyclopenta[c]thiophen-4-ol]
> 1 |  | > 1 | Cn1nc(C(F)(F)F)cc1-c1sc(S(C)(=O)=O)c2c1CC(F)(F)[C@H]2O [Example 48a, (4S)-5,5-difluoro-3-methanesulfonyl-1-[1-methyl-3-(trifluoromethyl)-1H-pyrazol-5-yl]-4H,5H,6H-cyclopenta[c]thiophen-4-ol]
> 1 |  |  | COc1ncc(-c2sc(S(C)(=O)=O)c3c2CCC(F)(F)[C@H]3O)cc1Cl [Example 65a, (4S)-1-(5-chloro-6-methoxypyridin-3-yl)-5,5-difluoro-3-methanesulfonyl-4,5,6,7-tetrahydro-2-benzothiophen-4-ol]
> 1 |  |  | CS(=O)(=O)c1sc(-c2cncc(C#N)c2)c2c1[C@H](O)C(F)(F)CC2 [Example 59a, 5-[(4S)-5,5-difluoro-4-hydroxy-3-methanesulfonyl-4,5,6,7-tetrahydro-2-benzothiophen-1-yl]pyridine-3-carbonitrile]
> 1 |  |  | Cc1cc(-c2sc(S(C)(=O)=O)c3c2CCC(F)(F)[C@H]3O)n(C)n1 [Example 50a, (4S)-1-(1,3-dimethyl-1H-pyrazol-5-yl)-5,5-difluoro-3-methanesulfonyl-4,5,6,7-tetrahydro-2-benzothiophen-4-ol]
> 1 |  |  | Cc1cncc(-c2sc(S(C)(=O)=O)c3c2CCC(F)(F)[C@H]3O)c1 [Example 57a, (4S)-5,5-difluoro-3-methanesulfonyl-1-(5-methylpyridin-3-yl)-4,5,6,7-tetrahydro-2-benzothiophen-4-ol]
> 1 |  |  | CS(=O)(=O)c1sc(-c2cncc(F)c2)c2c1[C@H](O)C(F)(F)CC2 [Example 58a, (4S)-5,5-difluoro-1-(5-fluoropyridin-3-yl)-3-methanesulfonyl-4,5,6,7-tetrahydro-2-benzothiophen-4-ol]
> 1 |  | > 1 | CS(=O)(=O)c1sc(-c2ccccc2)c2c1[C@H](O)CCC2 [Example 36a, (4R)-3-methanesulfonyl-1-phenyl-4,5,6,7-tetrahydro-2-benzothiophen-4-ol]
> 1 |  |  | Cn1cc(-c2sc(S(C)(=O)=O)c3c2CC(F)(F)[C@H]3O)cn1 [Example 35a, (4S)-5,5-difluoro-3-methanesulfonyl-1-(1-methyl-1H-pyrazol-4-yl)-4H,5H,6H-cyclopenta[c]thiophen-4-ol]
0.05 to 1 |  | > 1 | CS(=O)(=O)c1sc(-c2cnc(Cl)c(F)c2)c2c1[C@H](O)C(F)(F)CC2 [Example 61a, (4S)-1-(6-chloro-5-fluoropyridin-3-yl)-5,5-difluoro-3-methanesulfonyl-4,5,6,7-tetrahydro-2-benzothiophen-4-ol]
> 1 |  |  | Cn1cc(-c2sc(S(C)(=O)=O)c3c2CCC(F)(F)[C@H]3O)cn1 [Example 40a, (4S)-5,5-difluoro-3-methanesulfonyl-1-(1-methyl-1H-pyrazol-4-yl)-4,5,6,7-tetrahydro-2-benzothiophen-4-ol]
> 1 | > 1 | > 1 | CS(=O)(=O)c1sc(-c2cccc(F)c2)c2c1[C@H](O)C(F)(F)CC2 [Example 37a, (4S)-5,5-difluoro-1-(3-fluorophenyl)-3-methanesulfonyl-6,7-dihydro-4H-2-benzothiophen-4-ol]
< 0.05 | 0.05 to 1 | > 1 | CS(=O)(=O)c1sc(-c2cc(F)nc(Cl)c2)c2c1[C@H](O)C(F)(F)CC2 [Example 63a, (4S)-1-(2-chloro-6-fluoropyridin-4-yl)-5,5-difluoro-3-methanesulfonyl-4,5,6,7-tetrahydro-2-benzothiophen-4-ol]
